Data as given in patent US20110092521A1, “Methods of Treating Diseases Using Inhibitors of Nucleoside Phosphorylases and Nucleosidases” (priority 2006, published 2011).
“Also recorded” adds a separate entry of the source.

How the values were obtained:
FaDu xenografts = assay: FaDu xenograft studies in NOD-SCID mice; assay type: in vivo, mouse
Experimental: NOD-SCID mice (6-8 weeks old) were obtained from Jackson Laboratory (Bar Harbor, Me.). FaDu cells (10^6) were inoculated into the dorsum of the hind foot. After 5 days, mice were treated with 9 mg/kg or 21 mg/kg body weight of compound (2) in drinking water or by daily i.p. injections of 5 mg/kg body weight of compound (2). After inoculation mice were assigned to treatment or control groups (n=5). Tumor volume (V) was determined from: V=(4/3)*(22/7)*1/8*(length*width*height). Differences between treatment cohorts were determined using the Student's t test Mice were weighed every 4-5 days, monitored for hair loss, loss of appetite, vomiting and diarrhoea. Total and differential blood and bone marrow analyses were performed after treatment with compound (2).

[1] = tested on: TRAMP (transgenic adenocarcinoma of mouse prostate) mice; assay: Treatment of TRAMP mice (tumour mass, histology, MRI); assay type: in vivo; conditions: for prostate cancer progression in the TRAMP mouse model: administered either alone or in combination with MTA
Experimental: MRI experiments were performed using a 9.4 T 21 cm bore horizontal bore magnet (Magnex Scientific) Varian INOVA MRI system (Fremont, Calif.) equipped with a 28 mm inner diameter quadrature birdcage coil. Mice were anesthetized with isoflurane inhalation anesthesia (1-1.5% in 100% O2 administered via a nose cone) and positioned in the MRI coil. Body temperature was maintained (37-38° C.) using a homeothermic warming system. After acquiring scout images, multi-slice spin-echo imaging with an echo time of 18 ms and a repetition time of 400 ms ms was performed. A 40 mm field of view with a 256×256 matrix size was used. Nine to 15 slices along the transverse, sagittal, and coronal planes were acquired in each multi-slice experiment with a slice thickness of 1 mm and the gap between slices of 0.5 mm. MRI data were processed off-line with MATLAB-based MRI analysis software.
Long-Term: Sterile solutions of 100 μM compound (2) (pH ˜6.4). Water bottles were autoclaved prior to filling with sterile inhibitor solutions. Water consumption was monitored every other day, with fresh inhibitor solution being administered to prevent bacterial growth. Mice were control-sacrificed and tissues (genitourinary system, liver, lungs) were collected for histology and polyamine analysis. Mass and dimensions of excised genitourinary system tumours were recorded. Sections of small intestine were also removed for toxicity analysis via H&E staining.

## CSC[C@H]1CN(Cc2c[nH]c3c(N)ncnc23)C[C@@H]1O [compound (2), (3R,4S)-1-[(9-deazaadenin-9-yl)methyl]-3-hydroxy-4-(methylthiomethyl)pyrrolidine]
FaDu xenografts; 28 days without treatment after 28 day therapy, mice receiving the two highest doses
  regrowth of tumor after removal of treatment: no regrowth of tumor
FaDu xenografts; NOD-SCID mice with FaDu tumors, after 28 days of therapy
  differences in animal weight or in total and differential blood counts between treatment and control groups: No significant differences
FaDu xenografts; NOD-SCID mice, 9 or 21 mg/kg in drinking water or 5 mg/kg daily i.p., from day 5, versus controls
  growth of established FaDu xenografts (tumor growth): significantly slower than in controls; also recorded: significantly delays the growth
[1]; 100 μM via drinking water, approximately 6-8 months
  tumour growth and metastasis in TRAMP mice: reduces tumour growth and metastasis
[1]
  prostate cancer progression in the TRAMP mouse model: inhibited

## CSC[C@H]1N[C@@H](c2c[nH]c3c(N)ncnc23)C(O)C1O (stereo partly drawn) [compound (3)]
[1]
  prostate cancer progression in the TRAMP mouse model: inhibits prostate cancer progression
